Source: patent publication US6573218B1, “Fused-benzene derivatives useful as herbicides” (Ishihara Sangyo Kaisha, Ltd., priority 1998, dated 2003)

Tests used:
Type in all cases: in vivo
[1] = test system: field corn (Zea mays L., var. Dekalb 527, CORN); test: Pre-emerge greenhouse crop damage test; settings: var. Dekalb 527, field corn (Zea mays L.), in vivo, 14 days
From the text: (§1) A standard greenhouse herbicide activity screening system was used to evaluate the herbicidal efficacy and crop safety of these test compounds. Seven broadleaf weed species including redroot pigweed (Amaranthus retroflexus, AMARE), velvetleaf (Abutilon theophrasti, ABUTH), sicklepod (Cassia obtusifolia, CASOB), ivyleaf morningglory (Ipomoea hederacea, IPOHE), lambsquarters (Chenopodium album, CHEAL), common ragweed (Ambrosia artemisiifolia L., AMBEL), and cocklebur (Xanthium strumarium, XANST) were used as test species. Four grass weed species including green foxtail (Setaria viridis, SETVI), barnyardgrass (Echinochloa crus-galli, ECHCG), johnsongrass (Sorghum halepense, SORHA), and large crabgrass (Digitaria sanguinalis, DIGSA) were also used. In addition, three crop species, field corn (Zea mays L., var. Dekalb 527, CORN), soybean (Glycine max L., var. Pella 86, SOY), and upland rice (Ory0a sp., var.Tebonnet, RICE) were included.
(§2) All plants were grown in 10 cm square plastic pots which were filled with a sandy loam soil mix. For pre-emerge tests, seeds were planted one day prior to application of the test compounds. For post-emerge tests, seeds were planted 8-21 days prior to the test to allow emergence and good foliage development prior to application of the test substances. At the time of the post-emerge application, plants of all species were usually at the 2-3 leaf stage of development.
(§3) All test compounds were dissolved in acetone and applied to the test units in a volume of 187 l/ha. Test materials were applied at rates ranging from 15 g ai/ha to 1000 g ai/ha using a track sprayer equipped with a TJ8001E even flow flat fan spray nozzle. Plants were arranged on a shelf so that the top of the canopy (post-emerge) or top of the soil surface (pre-emerge) was 40-45 cm below the nozzle. Pressurized air was used to force the test solution through the nozzle as it was mechanically advanced over the top of all test plants/pots. This application simulates a typical commercial field herbicide application.
(§4) In the post-emerge test, a commercial non-ionic surfactant was also included (0.25% v/v) to enhance wetting of the leaf surfaces of target plants. Immediately after application, test units of the pre-emerge applications were watered at the soil surface to incorporate the test materials.
(§5) At 14 days after application of the test materials, phytotoxicity ratings were recorded. A rating scale of 0-100 was used as previously described in Research Methods in Weed Science, 2nd edition, B. Truelove, Ed., Southern Weed Science Society, Auburn University, Auburn, Ala., 1977. Briefly, “0” corresponds to no damage and “100” corresponds to complete death of all plants in the test unit. This scale was used both to determine efficacy against weed species and damage to crop species. Herbicide activity data for various compounds of this invention, which are shown by compound No. in Tables 1-14, are shown in Tables 16 and 17.

[2] = test system: upland rice (Ory0a sp., var.Tebonnet, RICE); test: Pre-emerge greenhouse crop damage test; settings: var. Tebonnet, upland rice (Ory0a sp.), in vivo, 14 days
From the text: as §1, §2, §3, §4, §5

[3] = test system: soybean (Glycine max L., var. Pella 86, SOY); test: Pre-emerge greenhouse crop damage test; settings: var. Pella 86, soybean (Glycine max L.), in vivo, 14 days
From the text: as §1, §2, §3, §4, §5

[4] = test system: johnsongrass (Sorghum halepense, SORHA); test: Pre-emerge greenhouse herbicide test; settings: 250 g ai/ha, 14 days after application, scale 0-100 (0 no damage, 100 complete death)
From the text: as §1, §2, §3, §4, §5

[5] = test system: large crabgrass (Digitaria sanguinalis, DIGSA); test: Pre-emerge greenhouse herbicide test; settings: 250 g ai/ha, 14 days after application, scale 0-100 (0 no damage, 100 complete death)
From the text: as §1, §2, §3, §4, §5

[6] = test system: ivyleaf morningglory (Ipomoea hederacea, IPOHE); test: Pre-emerge greenhouse herbicide test; settings: 250 g ai/ha, 14 days after application, scale 0-100 (0 no damage, 100 complete death)
From the text: as §1, §2, §3, §4, §5

[7] = test system: velvetleaf (Abutilon theophrasti, ABUTH); test: Pre-emerge greenhouse herbicide test; settings: 250 g ai/ha, 14 days after application, scale 0-100 (0 no damage, 100 complete death)
From the text: as §1, §2, §3, §4, §5

[8] = test system: lambsquarters (Chenopodium album, CHEAL); test: Pre-emerge greenhouse herbicide test; settings: 250 g ai/ha, 14 days after application, scale 0-100 (0 no damage, 100 complete death)
From the text: as §1, §2, §3, §4, §5

[9] = test system: redroot pigweed (Amaranthus retroflexus, AMARE); test: Pre-emerge greenhouse herbicide test; settings: 250 g ai/ha, 14 days after application, scale 0-100 (0 no damage, 100 complete death)
From the text: as §1, §2, §3, §4, §5

[10] = test system: green foxtail (Setaria viridis, SETVI); test: Pre-emerge greenhouse herbicide test; settings: 250 g ai/ha, 14 days after application, scale 0-100 (0 no damage, 100 complete death)
From the text: as §1, §2, §3, §4, §5

[11] = test system: barnyardgrass (Echinochloa crus-galli, ECHCG); test: Pre-emerge greenhouse herbicide test; settings: 250 g ai/ha, 14 days after application, scale 0-100 (0 no damage, 100 complete death)
From the text: as §1, §2, §3, §4, §5

[12] = test system: sicklepod (Cassia obtusifolia, CASOB); test: Pre-emerge greenhouse herbicide test; settings: 250 g ai/ha, 14 days after application, scale 0-100 (0 no damage, 100 complete death)
From the text: as §1, §2, §3, §4, §5

[13] = test system: field corn (Zea mays L., var. Dekalb 527, CORN); test: Post-emerge greenhouse crop damage test; settings: var. Dekalb 527, field corn (Zea mays L.), in vivo, 14 days
From the text: as §1, §2, §3, §4, §5

[14] = test system: upland rice (Ory0a sp., var.Tebonnet, RICE); test: Post-emerge greenhouse crop damage test; settings: var. Tebonnet, upland rice (Ory0a sp.), in vivo, 14 days
From the text: as §1, §2, §3, §4, §5

[15] = test system: soybean (Glycine max L., var. Pella 86, SOY); test: Post-emerge greenhouse crop damage test; settings: var. Pella 86, soybean (Glycine max L.), in vivo, 14 days
From the text: as §1, §2, §3, §4, §5

[16] = test system: johnsongrass (Sorghum halepense, SORHA); test: Post-emerge greenhouse herbicide test; settings: 250 g ai/ha, 14 days after application
From the text: as §1, §2, §3, §4, §5

[17] = test system: large crabgrass (Digitaria sanguinalis, DIGSA); test: Post-emerge greenhouse herbicide test; settings: 250 g ai/ha, 14 days after application
From the text: as §1, §2, §3, §4, §5

[18] = test system: ivyleaf morningglory (Ipomoea hederacea, IPOHE); test: Post-emerge greenhouse herbicide test; settings: 250 g ai/ha, 14 days after application
From the text: as §1, §2, §3, §4, §5

[19] = test system: velvetleaf (Abutilon theophrasti, ABUTH); test: Post-emerge greenhouse herbicide test; settings: 250 g ai/ha, 14 days after application
From the text: as §1, §2, §3, §4, §5

[20] = test system: lambsquarters (Chenopodium album, CHEAL); test: Post-emerge greenhouse herbicide test; settings: 250 g ai/ha, 14 days after application
From the text: as §1, §2, §3, §4, §5

[21] = test system: common ragweed (Ambrosia artemisiifolia L., AMBEL); test: Post-emerge greenhouse herbicide test; settings: 250 g ai/ha, 14 days after application
From the text: as §1, §2, §3, §4, §5

[22] = test system: redroot pigweed (Amaranthus retroflexus, AMARE); test: Post-emerge greenhouse herbicide test; settings: 250 g ai/ha, 14 days after application
From the text: as §1, §2, §3, §4, §5

[23] = test system: green foxtail (Setaria viridis, SETVI); test: Post-emerge greenhouse herbicide test; settings: 250 g ai/ha, 14 days after application
From the text: as §1, §2, §3, §4, §5

[24] = test system: barnyardgrass (Echinochloa crus-galli, ECHCG); test: Post-emerge greenhouse herbicide test; settings: 250 g ai/ha, 14 days after application
From the text: as §1, §2, §3, §4, §5

[25] = test system: sicklepod (Cassia obtusifolia, CASOB); test: Post-emerge greenhouse herbicide test; settings: 250 g ai/ha, 14 days after application
From the text: as §1, §2, §3, §4, §5

| SMILES | Pre-emerge Herbicidal Activity CORN (crop damage rating) [1] | Pre-emerge Herbicidal Activity RICE (crop damage rating) [2] | Pre-emerge Herbicidal Activity SOY (crop damage rating) [3] | Pre-emerge Herbicidal Activity SORHA (phytotoxicity rating) [4] | Pre-emerge Herbicidal Activity DIGSA (phytotoxicity rating) [5] | Pre-emerge Herbicidal Activity IPOHE (phytotoxicity rating) [6] | Pre-emerge Herbicidal Activity ABUTH (phytotoxicity rating) [7] | Pre-emerge Herbicidal Activity CHEAL (phytotoxicity rating) [8] | Pre-emerge Herbicidal Activity AMARE (phytotoxicity rating) [9] | Pre-emerge Herbicidal Activity SETVI (phytotoxicity rating) [10] | Pre-emerge Herbicidal Activity ECHCG (phytotoxicity rating) [11] | Pre-emerge Herbicidal Activity CASOB (phytotoxicity rating) [12] | Post-emerge crop damage CORN (phytotoxicity rating 0-100) [13] | Post-emerge crop damage RICE (phytotoxicity rating 0-100) [14] | Post-emerge crop damage SOY (phytotoxicity rating 0-100) [15] | Post-emerge Herbicidal Activity SORHA (phytotoxicity rating 0-100) [16] | Post-emerge Herbicidal Activity DIGSA (phytotoxicity rating 0-100) [17] | Post-emerge Herbicidal Activity IPOHE (phytotoxicity rating 0-100) [18] | Post-emerge Herbicidal Activity ABUTH (phytotoxicity rating 0-100) [19] | Post-emerge Herbicidal Activity CHEAL (phytotoxicity rating 0-100) [20] | further results |
| --- | --- | --- | --- | --- | --- | --- | --- | --- | --- | --- | --- | --- | --- | --- | --- | --- | --- | --- | --- | --- | --- |
| COC(=O)CC1CNc2c(c(Cl)cc(F)c2-n2c(=O)cc(C(F)(F)F)n(C)c2=O)O1 (centres unmarked) [Compound 2-8, 3-[8-Chloro-6-fluoro-2-(methoxycarbonyl)methyl-3,4-dihydro-2H-1,4-benzoxazin-5-yl]-1-methyl-6-trifluoromethyl-2,4(1H,3H)-pyrimidindione] | 70 | 50 | 100 | 100 | 100 | 100 | 100 | 100 | 100 | 100 | 60 | 100 | 70 | 90 | 100 | 95 | 50 | 100 | 100 | 100 | Post-emerge Herbicidal Activity AMBEL (phytotoxicity rating 0-100) [21]: 100; Post-emerge Herbicidal Activity AMARE (phytotoxicity rating 0-100) [22]: 100; Post-emerge Herbicidal Activity SETVI (phytotoxicity rating 0-100) [23]: 100; Post-emerge Herbicidal Activity ECHCG (phytotoxicity rating 0-100) [24]: 80; Post-emerge Herbicidal Activity CASOB (phytotoxicity rating 0-100) [25]: 50 |
| Cc1nc2c(-n3c(=O)cc(C(F)(F)F)n(C)c3=O)c(F)cc(Cl)c2oc1=O [Compound 3-1, 3-(8-Chloro-6-fluoro-3-methyl-2H-1,4-benzoxazin-2-one-5-yl)-1-methyl-6-trifluoromethyl-2,4(1H,3H)-pyrimidindione] | 0 | 0 | 0 | 0 | 0 | 0 | 100 | 100 | 60 | 20 | 0 | 0 | 0 | 0 | 30 | 0 | 0 | 50 | 95 | 60 | Post-emerge Herbicidal Activity AMBEL (phytotoxicity rating 0-100) [21]: 20; Post-emerge Herbicidal Activity AMARE (phytotoxicity rating 0-100) [22]: 70; Post-emerge Herbicidal Activity SETVI (phytotoxicity rating 0-100) [23]: 0; Post-emerge Herbicidal Activity ECHCG (phytotoxicity rating 0-100) [24]: 0; Post-emerge Herbicidal Activity CASOB (phytotoxicity rating 0-100) [25]: 0 |
